Experimental data taken from patent US20040023987A1, “Sustained release compositions” (priority 2000, published 2004).

Assay: Solubility in second solution of Japanese Pharmacopoeia (0.2 M phosphate buffer, pH approx. 6.8)
Assay type: physicochemical
Description: The term “solubility” used herein means concentration of drug in a supernatant which is obtained by centrifugal separation of unsolved agent, after shaking a mixture prepared by adding the agent to the second solution defined in Japanese Pharmacopoeia [0.2 M phosphate-buffer (pH approx. 6.8), for more than 30 minutes at room temperature (about 15 to about 25° C.) in a rate of more than 100 times per minutes using, for example, a Recipro shaker (model SR-I, Taiyo Scientific Industrial Co., Ltd.).

CONC(=O)Nc1ccc(-c2sc3c(c2CN(C)Cc2ccccc2)c(=O)n(-c2ccccc2)c(=O)n3Cc2c(F)cccc2F)cc1 [Reference example 7, 5-(N-Benzyl-N-methylaminomethyl)-1-(2,6-difluorobenzyl)-6-[4-(3-methoxyureido)phenyl]-3-phenylthieno[2,3-d]pyrimidine-2,4 (1H,3H)-dione]
water solubility (in words): water-insoluble or slightly water-soluble
